Source: publication PMC11391541, “Target-Directed Dynamic Combinatorial Chemistry Affords Binders of Mycobacterium tuberculosis IspE” (ACS Omega, 2024)
≈ marks a conversion by molar mass, not a printed value. Where “and” joins values, the source holds several entries; their conditions need not be identical. Equal entries are not always repeated.

Legend:
physchem = details: aqueous with cosolvent or surfactant or cyclodextrin, kinetic from dmso stock, solubility 5% DMSO in PBS
MtbIspE [1] = biological target: T1, MtbIspE (Mycobacterium tuberculosis, UniProt P9WKG7); assay: MtbIspE binding study via MicroScale Thermophoresis (MST); details: for MtbIspE binding at 20 μM: MST, 20 μM ligand, 200 nM MtbIspE, triplicate, qualitative
MtbH37Rv = type: cell-based, Mycobacterium tuberculosis
EcTolC = assay: microbe, parasite or virus in culture; type: cell-based; details: Escherichia coli, 18 h, LB medium, read-out: EcTolC %inh. At 50 μM
MtbIspE [2] = biological target: T1, MtbIspE; assay: MtbIspE binding study via thermal shift assay; details: read-out: MtbIspE ΔTm at 20 μM
MtbIspE [3] = biological target: T1, MtbIspE; assay: target-directed dynamic combinatorial chemistry (tdDCC), amplification of acylhydrazones in protein-templated vs blank DCL (HPLC-MS/MS, UV 310 nm); type: binding
Description: In this study, we used MtbIspE as target protein and the reversible reaction of hydrazides and aldehydes to form dynamic combinatorial libraries (DCLs) of acylhydrazones. […] To accelerate the reaction at neutral pH, aniline was used as nucleophilic catalyst activating the aldehydes.[2],[4],[19] We analyzed the protein’s effect on the DCLs by comparing HPLC-MS/MS data of blank vs protein-templated (PT) experiments. The experiments spanned 3 days, with periodic sampling (every 2 h, followed by two samples per day after 8 h). The addition of NaOH to raise the pH and halt the reactions ensured the sample composition was preserved for analysis.[19] Templated experiments were conducted in duplicate, and the protein was denatured and removed prior to HPLC-MS/MS analysis.
The tdDCC hits and thus potential MtbIspE binders are amplified in the PT experiment compared to the blank experiment. The first step in the analysis of DCLs is the determination of the equilibrium since the amplification factors need to be calculated when the concentration of products is stable. To determine the evolution of the possible products, it is important to measure the characteristic UV absorbance of the acylhydrazones linker (310 nm) during the HPLC-MS/MS run. The resulting UV peaks are assigned to each product using the MS data (Figures S3–S6). The sum of all peak areas is normalized to 100% in order to obtain the respective relative peak area (RPA) for each product. The RPA values represent relative concentrations, determined at each time point of the blank experiment until the values stabilize. […] However, the rest of the compounds are out of range, making a visual inspection difficult. […] The other three libraries behaved in the same way, reaching equilibrium within 24 h and also maintained stable concentrations beyond (Figures S7–S9). To determine the tdDCC hits, we compared the RPAs of the PT experiments to the blanks at 24 h and set a threshold of at least 50% increase in compound formation. In total, 11 acylhydrazones passed our criteria, with amplification factors ranging from […] to 15.5, qualifying them for resynthesis and further evaluation (Figure 3). During the analysis of chromatograms, challenges arose concerning product identification. Some compound peaks were not neatly separated, forcing us to consider them in clusters, others presented two peaks, likely due to isomers, and were considered separately in our evaluation. Lastly, some compounds were detected by MS, but their respective UV signal interfered with the injection peak or was too low for integration (<1%), both in the blank and PT experiments. Consequently, we excluded these compounds from the analysis (Figure S3–S6).
To a well of a 24-well plate, containing Tris buffer (pH 7.0) were added hydrazides (300 μM each, in DMSO), aldehydes (100 μM each, in DMSO), aniline (20 mM, in DMSO), the protein MtbIspE (25 or 40 μM in Tris buffer at pH 7.0), and an additional amount of DMSO to reach a final concentration of 5% in the DCL with 0.5 mL of end-volume. The DCL was allowed to mix on a plate shaker at room temperature and was frequently monitored via LCMS-MS. For analysis, 30 μL of the corresponding library was mixed with 42 μL acetonitrile and 3 μL of NaOH (1 M), the mixture was centrifuged, and the supernatant was used for the analysis. PT experiments were run in duplicates and the protein was omitted for the blank experiments.
High-resolution mass (HRMS) of final products was determined by HPLC-MS/MS using a Thermo Scientific Q Exactive Focus Orbitrap LC -MS/MS system. All compounds were analyzed for purity by LCMS on Acquity UPLC-SQD system from Waters with a gradient elution of Water (Formic acid 0.1%)/Acetonitrile on an HSS - T3 column (2.1 x 50 mm, Waters), 1.8 µm, at 30°C, PDA detection between 240 -320 nm, and MS detection by simultaneous ES+/ES- ionization in a mass range of 150 -800. The flow is set to 0.9 ml/min, and the […]
gradient time is 1.5 min. […]

T1 sequence (P9WKG7 whole entry): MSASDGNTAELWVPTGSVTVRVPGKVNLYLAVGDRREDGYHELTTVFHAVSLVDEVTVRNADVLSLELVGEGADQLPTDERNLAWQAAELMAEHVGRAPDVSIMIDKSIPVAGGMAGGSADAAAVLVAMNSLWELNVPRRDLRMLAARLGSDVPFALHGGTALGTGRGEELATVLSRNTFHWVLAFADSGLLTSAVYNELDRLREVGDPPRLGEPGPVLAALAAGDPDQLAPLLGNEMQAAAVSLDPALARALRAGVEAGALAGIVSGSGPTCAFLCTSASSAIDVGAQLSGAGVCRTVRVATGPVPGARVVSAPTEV

Row | SMILES | solubility at 5 min (physchem) [µM] | MtbIspE binding at 20 μM (MtbIspE [1]) | MtbH37Rv MIC90 (MtbH37Rv) | inhibition at 50 µM (EcTolC) [%] | ΔTm at 20 µM (MtbIspE [2]) [°C] | Amplification factors (DCL-4) (MtbIspE [3]; DCL-4, 24 h, 40 mol % MtbIspE) | Amplification factor (DCL-2, control compound) (MtbIspE [3]; DCL-2, 40 mol % MtbIspE) | MtbIspE binding in saturation MST experiment (MtbIspE [1]; saturation MST experiment) | Amplification factors (DCL-3) (MtbIspE [3]; DCL-3, 24 h, 40 mol % MtbIspE, I1 and K1 integrated as one cluster)
1 | COc1ccc(-c2cc(/C=N/NC(=O)c3cc(CC(C)C)n[nH]3)no2)cc1 [D6, (E)-3-Isobutyl-N′-((5-(4-methoxyphenyl)isoxazol-3-yl)methylene)-1H-pyrazole-5-carbohydrazide] | 20 ± 10 (≈ 7.35 µg/mL) | No | no inh. at max. sol. | 39 ± 6 | < 0.3 | 1.0 |  |  | 
2 | O=C(N/N=C/c1ccc(C(F)(F)F)cc1)c1cccc(Cl)c1 [K4, (E)-3-Chloro-N′-(4-(trifluoromethyl)benzylidene)benzohydrazide] | 21 ± 6 (≈ 6.86 µg/mL) | binding in only one measurement and 1/3 | no inh. at max. sol. | 38 ± 4 | 0.7 |  | 0.0 |  | 
3 | O=C(N/N=C/c1cc(Cl)ccc1O)c1ccncc1 [L1, (E)-N′-(5-Chloro-2-hydroxybenzylidene)isonicotinohydrazide] | 108 ± 3 (≈ 29.8 µg/mL) | did not bind and No | no inh. at max. sol. | 52 ± 3 | < 0.3 |  |  | no binding | 4.1
